Tested on: E. Coli ATCC 8739
Assay: In vitro suppression of bacterial growth from a biofilm on a plastic thread (transmittance of medium at 590 nm)
Assay type: cell-based
Conditions: 7 hours with Solution F/P, higher transmittance = less bacterial growth
Protocol: 1 ml of Stock E. Coli ATCC 8739 (Culture Count 10×10^8 CFU/ml) was diluted to 10 ml with buffered peptone water with NaCl. The 1 ml of resulting culture (10×10^7 CFU/ml) was diluted to 10 ml with buffered peptone water with NaCl to make E. Coli Culture (10×10^6 CFU/ml)
On first day 6 PM, Five (5) sterile test tubes were added with 50 ml of sterile Soybean Casein Digest Medium. These medium were inoculated with 1 ml of E. Coli culture (10×10^6 CFU/ml @ 6 PM. A thin plastic thread (0.1 mm OD) of the same length were suspended from the middle of all 5 test tubes and keep in overnight (17 hours) at 30° C.-35° C. • 2. On second day 11 AM, another Five (5) sterile test tubes were added with 50 ml of sterile Soybean Casein Digest Medium and 500 mg of Glucose. • a. 1 ml of Solution F (D-mannose solution) was added to test tube 1. • b. 1 ml of Solution P (Serrapeptidase solution) was added to test tube 2. • c. 1 ml of Solution F (D-Mannose solution) and 1 ml of Solution P (Serrapeptidase solution) was added to test tube 3.
The thin plastic thread was transferred from old test tube to new test tube on second day 11 AM. All 5 test tubes were kept at 30° C.-35° C. for 7 hours. • 3. On second day 6 PM, another Five (5) sterile test tubes were added with 50 ml of Sterile Soybean Casein Digest Medium. Transfer the thin plastic thread from old test tube to new test tube on second day at 6 PM. […]

## O=C1CN(/N=C/c2ccc([N+](=O)[O-])o2)C(=O)N1 [A (Antibiotic), Nitrofurantoin Anhydrous]
Procedure 2: thick plastic thread (0.5 mm OD), then 1 ml Solution A overnight (17 hours) at 30-35° C.
  transmittance of test tube medium at 590 nm: 6.9

## O=C1CN(/N=C/c2ccc([N+](=O)[O-])o2)C(=O)N1 [A^dil (Diluted Antibiotic), Nitrofurantoin Anhydrous]
Procedure 1: thin plastic thread (0.1 mm OD), overnight in fresh medium, then 1 ml Solution A^dil for 7 hours at 30-35° C.
  transmittance of test tube medium at 590 nm: 8.4
